According to patent publication US11793779B2, “Hica for use in prophylaxis and/or treatment of a disease or condition involving degradation of cartilage and/or disruption of cartilage homeostasis and/or integrity” (Salarusta Oy, priority 2020, dated 2023):

Experiments:
[1] = target: T1, human Matrix metalloproteinase 13 (MMP-13) (Homo sapiens, UniProt P45452); test: MMP-13 mediated break down of aggrecan (SDS-PAGE, silver stain); assay type: biochemical; settings: 10% racemic HICA, APMA-activated MMP-13, incubation 2 d, FIG. 1 line 11
T1 construct: purchased BioTeZ, Berlin-Buch, Berlin, Germany 30100802
Experimental: As positive inhibitor controls Ilomastat (Ilo, CC1010, Millipore) and chlorhexidine (CHX, Corsodyl®, [2 mg/ml] (GlaxoSmithKline, Brøndby, Denmark) were used and 50 mM Tris-HCl-buffer (TNC): pH 7.5; 0.2 M NaCl; 1.0 mM CaCl2) was used as neutral assay buffer.
MMP-13 was preincubated 1 hour at 37° C. with p-aminophenylmercuric acetate (APMA, A9563, Sigma-Aldrich) to optimally activate (pro)MMP-13. As substrate, Aggrecan was added and then ADAMTS-5 or activated MMP-13 as catalytic/proteolytic enzyme and TNC, as neutral control, and 10% HICA, CHX or Ilo as protease/MMP-inhibitors let incubated together from 1 hour (h) to 2 days (d). The enzyme reactions terminated by boiling with modified Laemmli buffer. The samples were analysed by 8% SDS-PAGE and after electrophoresis the defragmentation of Aggrecan was visualised using Silver Stain Pierce®.
Sample with concentrations in lines: • 1. 0.25 μl molecular weight standards. Bio-Rad • 2. 4.2 μl Aggrecan (0.5 μg/μl) • 3. 4 μl ADAMTS-5 (0.1 μg/μl) • 4. 4.2 μl Aggrecan+4 μl ADAMTS-5+6 μl TNC-buffer. inc: 2d • 5. 4.2 μl Aggrecan+4 μl ADAMTS-5+6 μl 10% HICA. inc: 2d • 6. 4.2 μl Aggrecan+4 μl ADAMTS-5+6 μl CHX (2 mg/ml). inc: 2d • 7. 1 μl MMP-13 (0.2 μg/μl)+3 μl 2 mM APMA+6 μl TNC • 8. 4.2 μl Aggrecan+1 μl MMP-13 (0.2 μg/μl)+3 μl 2 mM APMA+6 μl TNC. inc: 1h • 9. 4.2 μl Aggrecan+1 μl MMP-13 (0.2 μg/μl)+3 μl 2 mM APMA+6 μl TNC. inc: 2d • 10. […]

S-Hyaluronan = test: Serum hyaluronan (HA-ELISA) in 4-week double-blind study; assay type: in vivo, human
Experimental: In order to assess the effects of HICA on type II collagen and hyaluronic acid in healthy adults in vivo a study was conducted, where fifteen healthy male athletes (age 21.3±2.8 yr) volunteered for the 4-week study with double-blind design (Table 1). They were randomized to two parallel groups. Subjects in Group 1 (n=8, age 22.8±4.6 yr, height 179±6 cm, weight 76.2±6.9 kg, fat % 14.1±3.7%) received 583.2 mg of sodium salt of HICA (corresponding 500 mg of HICA) thrice a day for 4 weeks, and those in Group 2 (n=7, age 21.3±3.0 yr, height 178±5 cm, weight 73.5±5.0 kg, fat % 11.1±3.0%) received placebo (650 mg of maltodextrin) thrice a day for the same period. The subjects and the controls received repacked substance of equal volume (1.5 ml) which they were advised to mix with liquid. The subjects and the controls kept physical training constant during the study period, and they kept training daily. Serum specimens were obtained at baseline and in the end of the treatment. Specimens were aliquoted and immediately frozen; serum was collected and frozen at −70° C.
Serum HA was measured by Hyaluronan Enzyme-Linked Immunosorbent Assay Kit, HA-ELISA (Echelon Biosciences Inc., Salt Lake City, USA). Intra- and interassay coefficients of variation of the serum HA assay were 3.2% and 4.42% respectively. The assay range was 15-1,000 ng/ml, the intraassay CV was <4%, the interassay CV was <6%. […]

MMP-13 = MMP-13 (Homo sapiens, UniProt P45452); test: MMP-13 catalytic activity assay (modified pro-urokinase UKcol, chromogenic substrate S-2444, A405); assay type: biochemical; settings: HICA 25 μg/ml, FIG. 2
Experimental: This example was carried out to test the inhibition of the catalytic activity of MMP-13. MMP-13 activity was measured as described previously (Hanemaaijer, Visser et al. 1998). In brief, MMP-13 was captured from biological fluids using MMP-13-specific monoclonal antibody-coated 96-well plates. The wells were washed three times with PBS-T (phosphate buffered saline solution containing 0.05% [v/v] Tween-20) and incubated with […] assay buffer (50 mM Tris-HCl, pH 7.6. 150 mM NaCl, 5 mM CaCl2, 1 μM ZnCl2 and 0.01% [v/v] Brij-35), to which 15 μl (50 μg/ml) modified pro-urokinase (UKcol) and 10 pl (6 mM stock) chromogenic substrate S-2444 was added. Color development was recorded by measurement of A405 using a Titertek Multiskan 8-channel photometer (Verheijen, Nieuwenbroek et al. 1997). For measurement of total activity (already active plus latent MMP-13) in biological fluid, the immobilized MMP-13 was incubated with assay buffer containing 0.5 mM APMA for 2 hr, after which UKcol and S-2444 were added and activity was recorded. (Hanemaaijer, Sier et al. 1999)
The protocol for this experiment: MMP-13 was activated with […] of APMA (p-aminophenylmercuric acetate, obtained from Sigma-Aldrich #A9563), after which MMP-13 was diluted and mixed with indicated inhibitors. Solution was let to incubate 30 minutes at 37° C. […]

inhibition of break down of Aggrecan by MMP-13 [1]: inhibited the break down of Aggrecan | decreased activity of MMP-13 (MMP-13; MMP-13 concentration 1.5 ng/ml): 72% | decreased activity of MMP-13 (MMP-13; MMP-13 concentration 24 ng/ml): 73%
Structure (SMILES): CC(C)CC(O)C(=O)O (racemic) [HICA, 2-hydroxy-4-methylpentanoic acid]
S-Hyaluronan after HICA (S-Hyaluronan; Mean ± SEM, n=8 healthy male athletes, sodium salt of HICA corresponding 500 mg HICA thrice a day for 4 weeks, before 202 ± 56, p = 0.066 vs placebo): 143 ± 19 ng/mL | decrease in serum HA concentration (S-Hyaluronan; during 4-week administration of HICA, placebo 10%, p=0.066 between the groups): 29%
